Patent US9610294B2, “Methods and compositions for the treatment of fluid accumulation in and/or under the retina” (UNIVERSITE PARIS DESCARTES, priority 2010, dated 2017)
Like-named read-outs stand apart in the source and are kept apart here.

How the values were obtained:
[1] = system: Kir4.1; assay: Kir4.1 expression (real-time PCR, western blot) in rat RMG primary cultures and retinal explants; format: cell-based; conditions: for aldosterone-induced Kir4.1 up-regulation in presence of antagonist: 10 nM aldosterone plus 1 µM antagonist, 24 hrs
Description: (§1) Rat RMG cells were obtained as described (deKozak, Y., Naud, M. C., Bellot, J., Faure, J. P., and Hicks, D. (1994) Differential tumor necrosis factor expression by resident retinal cells from experimental uveitis-susceptible and -resistant rat strains. J Neuroimmunol 55, 1-9). Briefly, rats at postnatal (PN) day 17 (when RMG cells are mature) were sacrificed and eyes enucleated. Intact eyeballs were maintained in DMEM overnight at room temperature in the dark, and then incubated 45 min with 2 mg/ml trypsin/collagenase I at 37° C. The neural retinas were separated from the lens and vitreous, cut into small fragments and plated in Petri dishes containing DMEM supplemented with 10% FCS, 100 units/ml penicillin, 100 µg/ml streptomycin, and 0.2% amphotericin B. Cultures were maintained at 37° C. in a humidified atmosphere containing 5% CO2. After 5 to 6 days, the cultures were washed extensively with medium so that only a strongly adherent flat cell population remained.
(§2) Müller cells were seeded in 6-well tissue culture plates (Becton Dickinson, Le Pont de Claix, France). Rat PN17 RMG cells were maintained in their initial Petri dishes. Sub confluent (80%) cells were incubated in media supplemented with 10% steroid-free (charcoal treated) FCS for 24 hrs. Corticosteroid (Sigma-Aldrich, Saint Quentin Fallavier, France) treatments were then applied respectively for a further 24 hrs: 10 nM aldosterone, 10 nM aldosterone plus 1).IM RU38486 (GR-specific antagonist), 10 nM aldosterone plus 1 µM RU26752 (MR-specific antagonist) or 1 µM dexamethasone. The steroids were previously dissolved in 2% steroid-free FCS media containing 0.1% ethanol. Control cells were treated with 0.1% ethanol in media.
(§3) After enucleation, rat retinas were isolated immediately under aseptic conditions and cut into 4 pieces. They were then transferred onto a Cyclopore 0.2).Im polycarbonate membrane (Whatman, Maidstone, England), and flatmounted with the vitreal side up. The support membranes were placed in 6-well tissue culture plates containing 2 ml DMEM supplemented with 10% steroid-free FCS, 1% penicillin-streptomycin and 0.1% amphotericin B. Explants were treated with corticosteroids as described for cultured cells. Similarly, the dose-dependent effect of aldosterone (0.1-100 nM) was analyzed on retinal explants in separate experiments.
(§4) Total RNA was isolated from the treated RMG cells and retinal explants using RNeasy Mini Kit (Qiagen, Courtaboeuf, France). First-strand cDNA was synthesized after DNase I (Qiagen) treatment using random primers (Invitrogen) and superscript II reverse transcriptase (Invitrogen). Transcript levels of ENaC-a, Kir4.1 and AQP4 were analyzed by real-time PCR performed in 7500 Real-Time PCR System (Applied Biosystems, Foster City, Calif., USA) with either TaqMan® (Applied Biosystems) or SYBR® Green (Invitrogen, Cergy Pontoise, France) detection. The 18S was used as internal control.
(§5) Retinal explants were homogenized in Np40 buffer in the presence of protease inhibitors. The protein concentration was determined by the Bradford method. Equal amounts of protein (12 .ug) were separated on Novex® 4%-12% Tris-Glycine gel (Invitrogen), transferred to nitrocellulose, and the blots were incubated with primary antibodies at 4° C. overnight. The membranes were washed, incubated with horse radish peroxidase conjugated goat anti-rabbit IgG (1:3000, Vector, AbCys, Paris, France) for 1 hr at room temperature, and developed using ECL Plus western blotting detection reagents (GE healthcare, Orsay, France). The j3-actin was used as internal control. The following primary antibodies were used: rabbit anti-alpha ENaC (1:500, Abcam, Cambridge, Mass., USA), rabbit anti-Kir4.1 (1:400, Alomone Labs, Jerusalem, Israel), rabbit anti-AQP4 (1:750, Millipore, St Quentin en Yvelines, France) and rabbit anti-j3-actin (1:1000, Abcam)

[2] = system: AQP4; assay: AQP4 expression (real-time PCR, western blot) in rat RMG primary cultures and retinal explants; format: cell-based; conditions: for aldosterone induction of AQP4 mRNA in presence of antagonist: 10 nM aldosterone plus 1 µM antagonist, 24 hrs
Description: as §1, §2, §3, §4, §5

[3] = system: ENaC-α; assay: ENaC-α expression (real-time PCR, western blot) in rat RMG primary cultures and retinal explants; format: cell-based; conditions: for aldosterone-induced increase in ENaC-α subunit transcripts in presence of antagonist: 10 nM aldosterone plus 1 µM antagonist, 24 hrs
Description: as §1, §2, §3, §4, §5

[4] = system: retina; assay: Intraocular injection in Brown Norway rats (gain of function mutation in the MR gene): CSCR-like retinal pathology; format: in vivo; conditions: FIGS. 1 and 2
[5] = system: AQP4; assay: AQP4 mRNA expression in RMG cells (Example 2); format: cell-based
From the text: We have performed several experiments.

[6] = system: retina; assay: Intravitreal spironolactone in GK diabetic rats: electroretinograms (ERG); format: in vivo, Goto-Kakizaki (GK) rats; conditions: 18 months diabetic GK rats, intravitreous 1 μM at day 1,3,5; 24 hrs after last injection, FIG. 7
Description: In 18 months-old GK rats, electroretinogramms were preformed (ERG).
18 months diabetic rats were treated with intravitreous injections (1 μM) at day 1,3,5 and animals were re tested for ERGs 24 hrs after each injection.

[7] = system: retina; assay: Intravitreal spironolactone in GK diabetic rats: retinal histology; format: in vivo, Goto-Kakizaki (GK) rats
Description: Goto-Kakizaki (GK) rats have been used as model for diabetic retinopathy. GK rats (Taconic Europe, Denmark), a Wistar non-obese model of Non-Insulin Dependent type 2 Diabetes were used at different ages of hyperglycemia. Glycemia was measured using Accutrend GC and Accu-check compact equipments (Roche) and plasma glucose >250 mg/dl was considered as diabetic state. […] Controls were selected from age-matched non-diabetic rats and with plasma glucose <150 mg/dl. […] 18 months diabetic rats were treated with intravitreous injections (1 μM) at day 1,3,5 and animals were re tested for ERGs 24 hrs after each injection. 24 hrs after the third injection, animals were sacrificed and the retina were analyzed using semi-thin sections.

[8] = system: sub retinal and/or intra retinal fluid; assay: Oral eplerenone in patients with CSCR or chronic diffuse epitheliopathy; format: in vivo, human; conditions: for recurrence: at 6 months
From the text: Patients with non-resolutive or chronic diffuse epitheliopathy presenting with macular fluid accumulation have been treated with oral eplerenone, a specific MR antagonist. […] On the contrary, 4 months later and at 1 week before treatment, the amount of fluid had accumulated. […] They have a long history of recurrent CSCR on both eyes. In their left eye (OS), they present a macular edema with sub retinal fluid and retinal cysts. The left eye vision is reduced to 1/10 and the edema is chronic since more than 2 years. They have been treated with eplerenone 25 mg/day for 8 days and then 50 mg/days for 3 month. […] Moreover, vision in the left eye recovered to 6/10. No recurrence was observed on none of the eyes even at 6 months.

[9] = 18 months GK rats, 3 intravitreous injections 1 μM, vs vehicle, FIG. 8
[10] = GK diabetic rats, intraocular, conclusion
[11] = GK rats, 1 μM final in the vitreous, 24 hrs after injection, FIG. 6

CC#C[C@]1(O)CC[C@H]2[C@@H]3CCC4=CC(=O)CCC4=C3[C@@H](c3ccc(N(C)C)cc3)C[C@@]21C [RU38486]
aldosterone-induced Kir4.1 up-regulation in presence of antagonist [1]: fully efficient to reduce it
aldosterone induction of AQP4 mRNA in presence of antagonist [2]: reduces somehow
aldosterone-induced increase in ENaC-α subunit transcripts in presence of antagonist [3]: inhibited

C[C@]12C[C@H](O)[C@H]3[C@@H](CCC4=CC(=O)CC[C@@]43C)[C@@H]1CC[C@@H]2C(=O)CO [corticosterone]
retinal pathology after intraocular injection [4]: develop a retinal pathology very close to CSCR

CCC[C@@H]1CC2=CC(=O)CC[C@]2(C)[C@H]2CC[C@@]3(C)[C@@H](CC[C@@]34CCC(=O)O4)[C@H]12 [RU26752]
aldosterone-induced Kir4.1 up-regulation in presence of antagonist [1]: weaker (or no) effect
aldosterone-induced Kir4.1 protein in presence of MR antagonist ([1]; western blot): reduced
aldosterone induction of AQP4 mRNA in presence of antagonist [2]: fully suppressed
aldosterone-induced AQP4 protein in presence of MR antagonist ([2]; western blot): blocked
aldosterone-induced increase in ENaC-α subunit transcripts in presence of antagonist [3]: inhibited
aldosterone-induced ENaC protein in presence of MR antagonist ([3]; western blot, retinal explants): not reduced
aldosterone induction of AQP4 mRNA on co-administration of MR antagonist [5]: completely blocks the induction

C[C@]12C=CC(=O)C=C1CC[C@H]1[C@@H]3C[C@@H](O)[C@](O)(C(=O)CO)[C@@]3(C)C[C@H](O)[C@@]12F [triamcinolone]
expression of the water channel AQP4 [5]: reduces the expression of AQP4
expression of the water channel AQP4 ([5]; listed as triamcinolone acetonide): same effect as a MR antagonist

CC(=O)S[C@@H]1CC2=CC(=O)CC[C@]2(C)[C@H]2CC[C@@]3(C)[C@@H](CC[C@@]34CCC(=O)O4)[C@H]12 [spironolactone, 17-hydroxy-7α-mercapto-3-oxo-17α-pregn-4-ene-21-carboxylic acid γ-lactone acetate]
ERG b-wave after treatment compared to before treatment [6]: significantly increased
edema in inner/outer (IS/OS) segments and outer nuclear layer (ONL) [7, 9]: decreased
vasodilation in the choriocapillaries [7, 9]: reduced
formation of outer segments [7, 10]: improves
retinal edema [7, 10]: efficiently reduces
fluid accumulation in the outer nuclear layer (photoreceptor layer) [7, 11]: have decreased
thickness of the outer retina [7, 11]: decreased

COC(=O)[C@@H]1CC2=CC(=O)CC[C@]2(C)[C@@]23O[C@@H]2C[C@@]2(C)[C@@H](CC[C@@]24CCC(=O)O4)[C@H]13 [eplerenone, Pregn-4-ene-7,21-dicarboxylic acid, 9,11-epoxy-17-hydroxy-3-oxo-,γ-lactone, methyl ester, (7α,11α,17β)]
sub retinal fluid ([8]; FIG. 3 patient, CSCR unresolved for 4 months, 25 mg/day orally for 8 days): striking reduction
recurrence ([8]; FIG. 3 patient, treatment discontinued after 4 weeks): did not show any recurrence
sub retinal fluid ([8]; FIG. 3 patient, then 50 mg/day for 8 days, after 2 weeks of treatment): almost complete resolution
sub retinal fluid ([8]; FIG. 4 patient, chronic CSCR, 25 mg/day for 8 days then 50 mg/day, 15 days after treatment): complete resolution
macular cysts ([8]; FIG. 4 patient, chronic CSCR, 15 days after treatment): total resolution
recurrence ([8]; FIG. 4 patient, both eyes): No recurrence
vision in the left eye ([8]; FIG. 4 patient, reduced to 1/10 before treatment): 6/10
kinetics of efficacy ([8]; patients, oral eplerenone): as early as the first week of use
regression of sub retinal and/or intra retinal fluid ([8]; patients, oral eplerenone, FIGS. 3 and 4): very rapid and efficient regression
